The target in this assay is PCSK9 (Homo sapiens, UniProt Q8NBP7). Put plainly: BODIPY-LDL uptake assay in HepG2 cells. In kind it is cell-based. To be noted: 5 μg/ml PCSK9, BODIPY-LDL. On the procedure: BODIPY-LDL Uptake Assay in HepG2 Cells.
An established assay for PCSK9 inhibition features uptake of fluorescently labeled LDL nanoparticles (BODIPY-LDL) by hepatocytes and uptake of the BODIPY-containing particles is maximized in the absence of PCSK9.
In the LDL uptake assay, HepG2 cells were seeded at a density of 6×10^4 cells/well in a 96-well plate. After 24 h, the test compounds at various concentrations were pre-incubated with 5 μg/ml PCSK9 in 0.2% DMSO for 60 min prior to the addition on to the cells. After 16 h the medium was removed and 1 μg/ml BODIPY-LDL (Invitrogen) in serum free media was added and incubated for 5 h. Then the cells were washed twice with 0.25% BSA in PBS. Then the fluorescence of the cells in PBS was measured using TECAN multimode reader (Excitation: 485 nm and Emission: 520 nm). The readings were taken in triplicate and the final values were normalized with the protein concentration from respective wells. The wells without test compound containing external PCSK9 is considered as zero uptake and the one without PCSK9 was considered as 100% uptake. The percentage increase in LDL uptake for the test compounds were calculated using these values.

Each structure is given as a SMILES string.

Chain of PCSK9 (Q8NBP7 153-692): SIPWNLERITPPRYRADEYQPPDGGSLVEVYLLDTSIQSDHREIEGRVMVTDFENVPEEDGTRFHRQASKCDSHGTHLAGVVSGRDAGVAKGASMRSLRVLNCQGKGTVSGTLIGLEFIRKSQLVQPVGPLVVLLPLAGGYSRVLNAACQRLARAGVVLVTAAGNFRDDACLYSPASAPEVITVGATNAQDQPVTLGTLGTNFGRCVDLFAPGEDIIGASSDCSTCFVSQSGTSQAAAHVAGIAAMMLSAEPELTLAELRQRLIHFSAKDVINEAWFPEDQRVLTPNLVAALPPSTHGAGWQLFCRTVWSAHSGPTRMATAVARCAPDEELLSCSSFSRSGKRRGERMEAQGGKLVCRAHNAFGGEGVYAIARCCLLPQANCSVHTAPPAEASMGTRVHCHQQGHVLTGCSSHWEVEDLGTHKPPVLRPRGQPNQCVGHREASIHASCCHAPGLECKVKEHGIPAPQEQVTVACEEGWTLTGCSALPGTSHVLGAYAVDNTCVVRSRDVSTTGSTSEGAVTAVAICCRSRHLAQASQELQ

For `[2H]C([2H])([2H])OC1(c2cccc(C(=O)N3CCC(c4ccc(C(F)F)cc4)CC3)c2)COC1` [Example 59, (4-(4-(difluoromethyl)phenyl)piperidin-1-yl)(3-(3-(methoxy-d3)oxetan-3-yl)phenyl) methanone], the “% increase in LDL Uptake” value by setting is: (1 μM test compound) 0%; (10 μM test compound) 0%; (30 μM test compound) 37%.
In the case of `CCSCCOC1(c2ccc(C(=O)N3CCC(c4ccc(C(F)(F)F)cc4)CC3)cc2)COC1` [Example 189, (4-(3-(2-(ethylthio)ethoxy)oxetan-3-yl)phenyl)(4-(4-(trifluoromethyl)phenyl)piperidin-1-yl)methanone], the “% increase in LDL Uptake” value reads like this: (1 μM test compound) 0%; (10 μM test compound) 116%; (30 μM test compound) 19%.
With `CCOC1(c2ccc(C(=O)N3CCN(c4ccc(C(F)(F)F)cn4)CC3)cc2)COC1` [Example 219, (4-(3-ethoxyoxetan-3-yl)phenyl)(4-(5-(trifluoromethyl)pyridin-2-yl)piperazin-1-yl)methanone], the “% increase in LDL Uptake” value reads like this: (1 μM test compound) 4%; (10 μM test compound) 41%; (30 μM test compound) 15%.
The matching figures for `O=C(c1cncc(C2(O)COC2)c1)N1CCC(c2ccc(C(F)(F)F)cc2)CC1` [Example 49, (5-(3-hydroxyoxetan-3-yl)pyridin-3-yl)(4-(4-(trifluoromethyl)phenyl)piperidin-1-yl)methanone]: 11%, 45% and 74%.
The like results for `COc1ccc(C2CCN(C(=O)c3ccc(C4(O)COC4)cc3)CC2)cc1F` [Example 28, (4-(3-fluoro-4-methoxyphenyl)piperidin-1-yl)(4-(3-hydroxyoxetan-3-yl)phenyl)methanone] were, in that order, 0%, 8% and 39%.
The matching figures for `CC#CCOC1(c2ccc(C(=O)N3CCC(c4ccc(C(F)(F)F)cc4)CC3)cc2)COC1` [Example 70, (4-(3-(but-2-yn-1-yloxy)oxetan-3-yl)phenyl)(4-(4-(trifluoromethyl)phenyl)piperidin-1-yl)methanone]: 0%, 26% and 14%.
`OC1(c2cc(N3CCOCC3)cc(N3CCC(c4ccc(C(F)(F)F)cc4)CC3)c2)COC1` [Example 84, 3-(3-morpholino-5-(4-(4-(trifluoromethyl)phenyl)piperidin-1-yl)phenyl) oxetan-3-ol]: the “% increase in LDL Uptake” value is listed as 6% (1 μM test compound), 13% (10 μM test compound) and 17% (30 μM test compound).
In the case of `COC1(c2ccc(C(=O)N3CCC(c4ccc(C(F)(F)F)nc4)CC3)cc2)COC1` [Example 213, (4-(3-methoxyoxetan-3-yl)phenyl)(4-(6-(trifluoromethyl)pyridin-3-yl)piperidin-1-yl)methanone], the “% increase in LDL Uptake” value (1 μM test compound) is on record as 0%, the “% increase in LDL Uptake” value (10 μM test compound) is 0% and the “% increase in LDL Uptake” value (30 μM test compound) is on record as 37%.
In the case of `COCCOC1(c2ccc(C(=O)N3CC4CN(c5ccc(C(F)(F)F)cc5)CC4C3)cc2)COC1` (stereo not drawn) [Example 137, (4-(3-(2-methoxyethoxy)oxetan-3-yl)phenyl)(5-(4-(trifluoromethyl)phenyl)hexahydropyrrolo[3,4-c]pyrrol-2(1H)-yl)methanone], the “% increase in LDL Uptake” value reads like this: (1 μM test compound) 0%; (10 μM test compound) 66%; (30 μM test compound) 116%.
Turning to `Cn1nc(-c2ccc(C(F)(F)F)cc2)c2c1CN(C(=O)c1ccc(C3(O)COC3)cc1)C2` [Example 20, (4-(3-hydroxyoxetan-3-yl)phenyl)(1-methyl-3-(4-(trifluoromethyl)phenyl)-4,6-dihydropyrrolo[3,4-c]pyrazol-5(1H)-yl)methanone], the “% increase in LDL Uptake” value runs as follows: (1 μM test compound) 0%; (10 μM test compound) 7%; (30 μM test compound) 18%.
On to `O=C(c1cccc(C2(O)COC2)c1)N1CC2CN(c3ccc(C(F)(F)F)cc3)CC2C1` (stereo not drawn) [Example 55, (3-(3-hydroxyoxetan-3-yl)phenyl)(5-(4-(trifluoromethyl)phenyl)hexahydropyrrolo[3,4-c]pyrrol-2(1H)-yl)methanone], for which the “% increase in LDL Uptake” value (1 μM test compound) was 82%, the “% increase in LDL Uptake” value (10 μM test compound) is 320% and the “% increase in LDL Uptake” value (30 μM test compound) is listed as 287%.
The like results for `CCOC1(c2ccc(C(=O)N3CCC(c4ccc(C(F)(F)F)cc4)CC3)cc2)CSC1` [Example 148, (4-(3-ethoxythietan-3-yl)phenyl)(4-(4-(trifluoromethyl)phenyl)piperidin-1-yl)methanone] were, in that order, 20%, 3% and 11%.
The matching figures for `COC1(c2cccc(C(=O)N3CCCC(c4ccc(C(F)(F)F)cc4)C3)c2)COC1` (stereo not drawn) [Example 51, (3-(3-methoxyoxetan-3-yl)phenyl)(3-(4-(trifluoromethyl)phenyl)piperidin-1-yl)methanone]: 11%, 79% and 131%.
The like results for `COC1(c2ccc(C(=O)N3CC4CN(c5ccc(C(F)(F)F)cc5)CC4C3)cc2)CSC1` (stereo not drawn) [Example 149, (4-(3-methoxythietan-3-yl)phenyl)(5-(4-(trifluoromethyl)phenyl)hexahydropyrrolo[3,4-c]pyrrol-2(1H)-yl)methanone] were, in that order, 0%, 30% and 9%.
Take `COC1(c2ccc(C3(O)CCN(c4ccc(C(F)(F)F)cc4)CC3)cc2)COC1` [Example 73, 4-(4-(3-methoxyoxetan-3-yl)phenyl)-1-(4-(trifluoromethyl)phenyl) piperidin-4-ol]: the “% increase in LDL Uptake” value reads like this: (1 μM test compound) 0%; (10 μM test compound) 8%; (30 μM test compound) 0%.
Take `CCOC1(c2ccc(C(=O)N3CCC(c4ccc(C(F)(F)F)cc4)CC3)cc2)CCN(C(=O)OC(C)(C)C)CC1` [Example 161, tert-butyl 4-ethoxy-4-(4-(4-(4-(trifluoromethyl)phenyl)piperidine-1-carbonyl)phenyl) piperidine-1-carboxylate]: the “% increase in LDL Uptake” value is 0% (1 μM test compound), 0% (10 μM test compound) and 16% (30 μM test compound).
Take `COC1(c2ccc(NC(=O)C3CCN(c4ccc(C(F)(F)F)cc4)CC3)cc2)COC1` [Example 60, N-(4-(3-methoxyoxetan-3-yl)phenyl)-1-(4-(trifluoromethyl)phenyl) piperidine-4-carboxamide]: the “% increase in LDL Uptake” value runs as follows: (1 μM test compound) 50%; (10 μM test compound) 7%; (30 μM test compound) 0%.
The matching figures for `COC1(c2ccc(C(=O)N3CCC(c4ccc(C(F)(F)F)c(-n5cnc(C)c5)c4)CC3)cc2)COC1` [Example 108, (4-(3-methoxyoxetan-3-yl)phenyl)(4-(3-(4-methyl-1H-imidazol-1-yl)-4-(trifluoromethyl)phenyl)piperidin-1-yl)methanone]: 9%, 26% and 32%.
The like results for `CCOC1(c2ccc(C(=O)N3CC4=C(C3)CN(c3ccc(C(F)(F)F)cc3)C4)cc2)COC1` [Example 104, (4-(3-ethoxyoxetan-3-yl)phenyl)(5-(4-(trifluoromethyl)phenyl)-3,4,5,6-tetrahydropyrrolo[3,4-c]pyrrol-2(1H)-yl)methanone] were, in that order, 1%, 30% and 18%.
The matching figures for `CC(C)COC1(c2ccc(C(=O)N3CCC(c4ccc(C(F)(F)F)cc4)CC3)cc2)COC1` [Example 45, (4-(3-isobutoxyoxetan-3-yl)phenyl)(4-(4-(trifluoromethyl)phenyl)piperidin-1-yl)methanone]: 19%, 9% and 4%.
As for `O=C(c1cccc(C2(OCC3CC3)COC2)c1)N1CC2CN(c3ccc(C(F)(F)F)cc3)CC2C1` (stereo not drawn) [Example 181, (3-(3-(cyclopropylmethoxy)oxetan-3-yl)phenyl)(5-(4-(trifluoromethyl)phenyl)hexahydropyrrolo[3,4-c]pyrrol-2(1H)-yl)methanone], the “% increase in LDL Uptake” value runs as follows: (1 μM test compound) 3%; (10 μM test compound) 19%; (30 μM test compound) 26%.
The like results for `CCOC1(c2ccc(C(=O)N3CCCC(c4ccc(C(F)(F)F)cc4)C3)cc2)COC1` (stereo not drawn) [Example 123, (4-(3-ethoxyoxetan-3-yl)phenyl)(3-(4-(trifluoromethyl)phenyl)piperidin-1-yl)methanone] were, in that order, 0%, 14% and 30%.
The like results for `O=C(c1ccc(C2(O)CNC2)cc1)N1CCC(c2ccc(C(F)(F)F)cc2)CC1` [Example 155, (4-(3-hydroxyazetidin-3-yl)phenyl)(4-(4-(trifluoromethyl)phenyl)piperidin-1-yl)methanone] were, in that order, 0%, 0% and 58%.

Values taken from patent US20230089247A1, “NOVEL COMPOUNDS SUITABLE FOR THE TREATMENT OF DYSLIPIDEMIA” (ZYDUS LIFESCIENCES LIMITED, priority 2019, published 2023).
